Measurements reported in patent publication US6399598B1, “Diheterocyclic metalloprotease inhibitors” (The Procter & Gamble Company, priority 1996, dated 2002).

Tests used:
Format in all cases: in vivo
osteoarthritis = assay: Treatment of an osteoarthritis patient with oral capsules (Example B); settings: human male, capsule with 70 mg daily for 5 years
Description: A capsule for oral administration, according to the present invention, is made comprising:
A human subject weighing 90 kg (198 lbs), suffering from osteoarthritis, is treated by a method of this invention. Specifically, for 5 years, a capsule containing 70 mg of Example 3 is administered daily to said subject.

chemical burns = assay: Topical composition in a patient with chemical burns (Example D); settings: 0.20% w/v topical composition at each dressing change (b.i.d.)
From the text: An topical composition for local administration, according to the present invention, is made comprising:
A patient suffering from chemical burns applies the composition at each dressing change (b.i.d.).

premetastatic tumor = assay: Injection beside a premetastatic tumor in a human subject (Example G); settings: 100 mg/ml suspension, approx. 2.0 ml injected beside the tumor twice daily, after 30 days
Description: A composition for parenteral administration is made comprising: The above ingredients are mixed, forming a suspension. Approximately 2.0 ml of the suspension is administered, via injection, to a human subject with a premetastatic tumor. The injection site juxtaposes the tumor. This dosage is repeated twice daily, for approximately 30 days.

rheumatoid arthritis = assay: Treatment of a rheumatoid arthritis patient with oral tablets (Example A); settings: human female, three 15 mg tablets per day orally for 2 years
Description: A tablet composition for oral administration, according to the present invention, is made comprising:
A human subject weighing 60 kg (132 lbs), suffering from rheumatoid arthritis, is treated by a method of this invention. Specifically, for 2 years, a regimen of three tablets per day is administered orally to said subject.

Structure (SMILES): COc1ccc(S(=O)(=O)N2CN(Cc3ccccc3)C(=O)C(C)(C)C2C(=O)NO)cc1 (racemic) [Example 3, N-Hydroxy 1-Benzyl-5,5-dimethyl-3-[(4-methoxyphenyl)sulfonyl]-6-oxo-hexahydro-pyrimidine-4(R,S)-carboxamide]
- erosion/fibrillation of the articular cartilage, examined via orthoscopy (osteoarthritis): no further advancement of erosion/fibrillation of the articular cartilage
- scarring (chemical burns): Scarring is substantially diminished

Structure (SMILES): COc1ccc(S(=O)(=O)N2CCN(C(C)C)C(=O)C[C@@H]2C(=O)NO)cc1 [Example 4, N-Hydroxy 1-(1-Methylethyl)-4-[(4-methoxyphenyl)sulfonylamino]-7-oxo-1,4-diazepine-5(R)-carboxamide]
- symptoms of the disease (premetastatic tumor): symptoms of the disease subside

Structure (SMILES): COc1ccc(S(=O)(=O)N2CCSCCC2C(=O)NO)cc1 (centres unmarked) [Example 9, N-Hydroxy-4-[(4-methoxyphenyl)sulfonyl]-thiazepine-5-carboxamide]
- inflammation at the end of the treatment period (rheumatoid arthritis): reduced inflammation
- mobility and pain at the end of the treatment period (rheumatoid arthritis): improved mobility without concomitant pain
